In US10975084B2, “KDM5 inhibitors” (Merck Sharp & Dohme Corp., priority 2016, dated 2021):

Target: KDM5B (Homo sapiens (Human), UniProt Q9UGL1)
Test: KDM5B TR-FRET Enzyme Activity Assay
Type: biochemical
Conditions: LANCE TR-FRET; 5 nM full-length recombinant KDM5B; ten point titration 100000 nM to 5.08 nM
Protocol: KDM5B TR-FRET Enzyme Activity Assay
KDM5B enzymatic activity was determined with the LANCE (Lanthanide Chelate Excite) TR-FRET (Time-resolved fluorescence resonance energy transfer) assay. […] To each well of a white Greiner 1536 Lumitrac 1536 well-plate, 50 nL of compound (100 fold dilution in final assay volume of 5 μL) was dispensed, followed by the addition of 4 μL of 1× assay buffer (50 mM Hepes 7.3, 0.5 mM TCEP, 0.005% Brij-35, 0.02% BSA, 50 μM Na-L-Ascorbate and 2 μM AmFe(II)Sulfate) containing 5 nM of Full-length KDM5B enzyme (recombinant protein from baculovirus-transfected Sf21 cells: full-length KDM5B; MW=176.825 kDa). Following a 30 minutes compound and enzyme incubation in a humidified chamber, each reaction was initiated by the addition of 1 μL 1× assay buffer containing […] biotinylated H3K4Me3 peptide, and 500 nM α-ketoglutarate. The final reaction in each well of 5 μL consists of 5 nM KDM5B, 500 nM biotinylated-peptide, and 500 nM α-ketoglutarate. De-methylation reactions were allowed to proceed for 60 minutes. Reactions were immediately quenched by the addition of 5 uL of 2× Lance Detection Buffer (PerkinElmer) with 0.5 mM EDTA and 2 nM of Eu-anti-H3K4Me1-2 antibody, and 30 nM of Streptavidin-conjugated Dylight 650 detection reagents. After 60 minutes incubation with detection reagents, reaction plates were read on a PerkinElmer EnVision plate reader using standard TR-FRET protocol. Briefly, excitation of donor molecules (Eu-chelate-anti-H3K4Me1-2-antibody) with a laser light source at 337 nm produces energy that can be transferred to Dylight-650 acceptor molecules if this donor:acceptor pair is within close proximity. Fluorescence intensity at both 665 nm (acceptor) and 615 nm (donor) are measured and a TR-FRET ratio calculated for each well (acceptor intensity/donor intensity). IC50 values were determined by 4 parameter robust fit of TR-FRET ratio values vs. (Log 10) compound concentrations.

KDM5B, sequence (Q9UGL1 whole entry): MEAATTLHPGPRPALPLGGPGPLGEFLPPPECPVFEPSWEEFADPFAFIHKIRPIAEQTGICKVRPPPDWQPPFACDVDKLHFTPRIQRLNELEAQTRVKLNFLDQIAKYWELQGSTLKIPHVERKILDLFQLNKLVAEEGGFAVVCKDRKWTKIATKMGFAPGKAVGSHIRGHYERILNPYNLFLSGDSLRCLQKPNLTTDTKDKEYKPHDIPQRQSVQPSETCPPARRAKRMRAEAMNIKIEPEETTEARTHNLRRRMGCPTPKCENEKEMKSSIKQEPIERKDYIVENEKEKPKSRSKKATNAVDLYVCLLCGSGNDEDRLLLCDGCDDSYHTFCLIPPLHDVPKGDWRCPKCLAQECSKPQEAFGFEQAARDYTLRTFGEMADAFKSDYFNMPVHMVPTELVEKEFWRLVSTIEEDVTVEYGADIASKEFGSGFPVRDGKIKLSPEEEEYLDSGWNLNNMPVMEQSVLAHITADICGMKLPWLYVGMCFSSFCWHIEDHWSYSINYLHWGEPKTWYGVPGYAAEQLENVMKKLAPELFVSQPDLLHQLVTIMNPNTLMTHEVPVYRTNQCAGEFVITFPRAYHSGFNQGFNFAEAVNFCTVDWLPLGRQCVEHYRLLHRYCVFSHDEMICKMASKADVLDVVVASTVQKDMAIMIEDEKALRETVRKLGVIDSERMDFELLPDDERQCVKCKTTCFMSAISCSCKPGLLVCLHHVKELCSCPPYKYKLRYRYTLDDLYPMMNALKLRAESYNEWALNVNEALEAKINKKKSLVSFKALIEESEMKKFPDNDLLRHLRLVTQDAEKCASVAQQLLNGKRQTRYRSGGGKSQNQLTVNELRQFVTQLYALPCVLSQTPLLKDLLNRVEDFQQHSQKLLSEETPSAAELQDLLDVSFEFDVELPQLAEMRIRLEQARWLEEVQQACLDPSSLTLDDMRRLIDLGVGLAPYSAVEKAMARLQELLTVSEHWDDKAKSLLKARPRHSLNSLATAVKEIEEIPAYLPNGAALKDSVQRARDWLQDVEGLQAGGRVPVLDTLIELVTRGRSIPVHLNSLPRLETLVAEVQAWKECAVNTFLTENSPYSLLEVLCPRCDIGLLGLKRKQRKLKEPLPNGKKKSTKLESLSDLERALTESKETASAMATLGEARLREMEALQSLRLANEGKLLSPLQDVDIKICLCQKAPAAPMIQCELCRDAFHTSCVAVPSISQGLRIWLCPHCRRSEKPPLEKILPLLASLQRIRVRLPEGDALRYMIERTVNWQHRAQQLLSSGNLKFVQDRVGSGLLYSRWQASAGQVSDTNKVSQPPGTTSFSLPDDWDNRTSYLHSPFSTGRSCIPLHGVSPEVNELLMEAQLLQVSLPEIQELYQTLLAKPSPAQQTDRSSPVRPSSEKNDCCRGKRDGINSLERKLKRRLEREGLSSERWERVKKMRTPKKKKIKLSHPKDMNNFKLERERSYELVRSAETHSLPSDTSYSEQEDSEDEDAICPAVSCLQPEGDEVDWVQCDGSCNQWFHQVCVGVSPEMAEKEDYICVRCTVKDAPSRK

| Structure (SMILES) | IC50 [µM] |
| --- | --- |
| Cc1cc(=O)n2ncnc2[nH]1 [Example 8-4, 5-methyl-[1,2,4]triazolo[1,5-a]pyrimidin-7(4H)-one] | 26.4 |
| O=c1cc(-c2ccccc2)[nH]c2ncnn12 [Example 8-5, 5-phenyl-[1,2,4]triazolo[1,5-a]pyrimidin-7(4H)-one] | 2.24 |
| CCCc1cc(=O)n2ncnc2[nH]1 [Example 8-6] | 47.6 |
| COC(=O)Cc1c(C)[nH]c2ncnn2c1=O [Example 8-7, methyl (5-methyl-7-oxo-4,7-dihydro[1,2,4]triazolo[1,5-a]pyrimidin-6-yl)acetate] | 21.3 |
| O=c1cc(-c2ccc(F)cc2)[nH]c2ncnn12 [Example 8-8, 5-(4-fluorophenyl)[1,2,4]triazolo[1,5-a]pyrimidin-7(4H)-one] | 1.3 |
| Cc1[nH]c2ncnn2c(=O)c1C(C)C [Example 8-12, 5-methyl-6-(1-methylethyl)[1,2,4]triazolo[1,5-a]pyrimidin-7(4H)-one] | 0.474 |
| CCc1c(C(F)(F)F)[nH]c2ncnn2c1=O [Example 8-16, 6-ethyl-5-(trifluoromethyl)[1,2,4]triazolo[1,5-a]pyrimidin-7(4H)-one] | 1.59 |
| CCc1[nH]c2ncnn2c(=O)c1C [Example 8-18, 5-ethyl-6-methyl[1,2,4]triazolo[1,5-a]pyrimidin-7(4H)-one] | 31.9 |
| CC(C)n1cc(-c2cc(=O)n3ncnc3[nH]2)cn1 [Example 8-19, 5-[1-(1-methylethyl)-1H-pyrazol-4-yl][1,2,4]triazolo[1,5-a]pyrimidin-7(4H)-one] | 1.53 |
| O=c1cc(C2CCOCC2)[nH]c2ncnn12 [Example 8-20, 5-(tetrahydro-2H-pyran-4-yl)[1,2,4]triazolo[1,5-a]pyrimidin-7(4H)-one] | 81.3 |
| O=c1cc(-c2ccoc2)[nH]c2ncnn12 [Example 8-21, 5-furan-3-yl[1,2,4]triazolo[1,5-a]pyrimidin-7(4H)-one] | 4.1 |
| O=c1cc(-c2ccncc2)[nH]c2ncnn12 [Example 8-22, 5-pyridin-4-yl[1,2,4]triazolo[1,5-a]pyrimidin-7(4H)-one] | 18.9 |
| O=c1cc(-c2ccco2)[nH]c2ncnn12 [Example 8-24, 5-furan-2-yl[1,2,4]triazolo[1,5-a]pyrimidin-7(4H)-one] | 6.79 |
| O=c1cc(-c2ccc(Cl)cc2)[nH]c2ncnn12 [Example 8-26, 5-(4-chlorophenyl)[1,2,4]triazolo[1,5-a]pyrimidin-7(4H)-one] | 1.39 |
| O=c1cc(-c2ccccc2Cl)[nH]c2ncnn12 [Example 8-27, 5-(2-chlorophenyl)[1,2,4]triazolo[1,5-a]pyrimidin-7(4H)-one] | 10.1 |
| O=c1cc(-c2cccc(F)c2)[nH]c2ncnn12 [Example 8-30, 5-(3-fluorophenyl)[1,2,4]triazolo[1,5-a]pyrimidin-7(4H)-one] | 2.45 |
| Cn1cc(-c2cc(=O)n3ncnc3[nH]2)cn1 [Example 8-31, 5-(1-methyl-1H-pyrazol-4-yl)[1,2,4]triazolo[1,5-a]pyrimidin-7(4H)-one] | 3.33 |
| CCCc1[nH]c2ncnn2c(=O)c1-c1ccccc1 [Example 8-32, 6-phenyl-5-propyl[1,2,4]triazolo[1,5-a]pyrimidin-7(4H)-one] | 37.6 |
| CC(C)c1cc(=O)n2ncnc2[nH]1 [Example 8-33, 5-(1-methylethyl)[1,2,4]triazolo[1,5-a]pyrimidin-7(4H)-one] | 82.3 |
| CCc1c(-c2ccccc2)[nH]c2ncnn2c1=O [Example 8-34, 6-ethyl-5-phenyl[1,2,4]triazolo[1,5-a]pyrimidin-7(4H)-one] | 0.519 |
| CC(C)c1c(-c2ccccc2)[nH]c2ncnn2c1=O [Example 8-35, 6-(1-methylethyl)-5-phenyl[1,2,4]triazolo[1,5-a]pyrimidin-7(4H)-one] | 0.271 |
| CCc1c(C)[nH]c2ncnn2c1=O [Example 8-36, 6-ethyl-5-methyl-[1,2,4]triazolo[1,5-a]pyrimidin-7(4H)-one] | 3.49 |
| CCc1c(C)[nH]c2nncn2c1=O [Example 8-37, 6-ethyl-7-methyl[1,2,4]triazolo[4,3-a]pyrimidin-5(8H)-one] | 91.7 |
| CC(C)n1cc(-c2[nH]c3ncnn3c(=O)c2C2CCC2)cn1 [Example 8-41, 6-cyclobutyl-5-[1-(1-methylethyl)-1H-pyrazol-4-yl][1,2,4]triazolo[1,5-a]pyrimidin-7(4H)-one] | 0.0329 |
| CC(C)(C)c1c(-c2cnn(-c3ccccc3)c2)[nH]c2ncnn2c1=O [Example 11-7, 6-tert-butyl-5-(1-phenyl-1H-pyrazol-4-yl)[1,2,4]triazolo[1,5-a]pyrimidin-7(4H)-one] | 0.772 |
| CC(C)c1c(-c2ccc(N3CCOCC3)cc2)[nH]c2ncnn2c1=O [Example 11-10, 6-(1-methylethyl)-5-(4-morpholin-4-ylphenyl)[1,2,4]triazolo[1,5-a]pyrimidin-7(4H)-one] | 0.00752 |

Further lines, results first:

| IC50 [µM] | Structure (SMILES) |
| --- | --- |
| 13.4 | O=c1cc(C(F)(F)F)[nH]c2ncnn12 [Example 8-3, 5-(trifluoromethyl)[1,2,4]triazolo[1,5-a]pyrimidin-7(4H)-one] |
| 21.8 | CCc1cc(=O)n2ncnc2[nH]1 [Example 8-9, 5-ethyl-[1,2,4]triazolo[1,5-a]pyrimidin-7(4H)-one] |
| 6.28 | CCOC(=O)c1[nH]c2ncnn2c(=O)c1Cl [Example 8-10, ethyl 6-chloro-7-oxo-4,7-dihydro[1,2,4]triazolo[1,5-a]pyrimidine-5-carboxylate] |
| 6.75 | CCOC(=O)c1[nH]c2ncnn2c(=O)c1C [Example 8-11, ethyl 6-methyl-7-oxo-4,7-dihydro[1,2,4]triazolo[1,5-a]pyrimidine-5-carboxylate] |
| 29.2 | Cn1ccc(-c2cc(=O)n3ncnc3[nH]2)n1 [Example 8-13, 5-(1-methyl-1H-pyrazol-3-yl)[1,2,4]triazolo[1,5-a]pyrimidin-7(4H)-one] |
| 25.7 | O=c1c(F)c(C(F)(F)F)[nH]c2ncnn12 [Example 8-17, 6-fluoro-5-(trifluoromethyl)[1,2,4]triazolo[1,5-a]pyrimidin-7(4H)-one] |
| 2.42 | O=c1cc(-c2ccccn2)[nH]c2ncnn12 [Example 8-23, 5-pyridin-2-yl[1,2,4]triazolo[1,5-a]pyrimidin-7(4H)-one] |
| 17.9 | Cc1[nH]c2ncnn2c(=O)c1F [Example 8-25, 6-fluoro-5-methyl[1,2,4]triazolo[1,5-a]pyrimidin-7(4H)-one] |
| 5.54 | O=c1cc(-c2ccccc2F)[nH]c2ncnn12 [Example 8-28, 5-(2-fluorophenyl)[1,2,4]triazolo[1,5-a]pyrimidin-7(4H)-one] |
| 2.98 | O=c1cc(-c2cccc(Cl)c2)[nH]c2ncnn12 [Example 8-29, 5-(3-chlorophenyl)[1,2,4]triazolo[1,5-a]pyrimidin-7(4H)-one] |
| 0.0162 | CC(C)c1c(-c2cnn(C)c2)[nH]c2ncnn2c1=O [Example 8-38, 6-(1-methylethyl)-5-(1-methyl-1H-pyrazol-4-yl)[1,2,4]triazolo[1,5-a]pyrimidin-7(4H)-one] |
| 0.0871 | CC(C)(C)n1cc(-c2[nH]c3ncnn3c(=O)c2CC(F)(F)F)cn1 [Example 8-39, 5-(1-tert-butyl-1H-pyrazol-4-yl)-6-(2,2,2-trifluoroethyl)[1,2,4]triazolo[1,5-a]pyrimidin-7(4H)-one] |
| 1.03 | O=c1c(C2CCC2)c(-c2ccc(F)cc2)[nH]c2ncnn12 [Example 8-40, 6-cyclobutyl-5-(4-fluorophenyl)[1,2,4]triazolo[1,5-a]pyrimidin-7(4H)-one] |
| 0.904 | CC(C)(C)c1c(-c2cnn(C(C)(C)C)c2)[nH]c2ncnn2c1=O [Example 11-4, 6-tert-butyl-5-(1-tert-butyl-1H-pyrazol-4-yl)[1,2,4]triazolo[1,5-a]pyrimidin-7(4H)-one] |
| 5.4 | CC(C)(C)c1c(-c2ccc(F)cc2)[nH]c2ncnn2c1=O [Example 11-5, 6-tert-butyl-5-(4-fluorophenyl)[1,2,4]triazolo[1,5-a]pyrimidin-7(4H)-one] |
| 1.27 | Cn1cc(-c2[nH]c3ncnn3c(=O)c2C(C)(C)C)cn1 [Example 11-6, 6-tert-butyl-5-(1-methyl-1H-pyrazol-4-yl)[1,2,4]triazolo[1,5-a]pyrimidin-7(4H)-one] |
| 0.00628 | CC(C)c1c(-c2cnn(-c3ccccc3)c2)[nH]c2ncnn2c1=O [Example 11-8, 6-(1-methylethyl)-5-(1-phenyl-1H-pyrazol-4-yl)[1,2,4]triazolo[1,5-a]pyrimidin-7(4H)-one] |
| 0.0073 | CC(C)c1c(-c2cnn(Cc3ccccc3)c2)[nH]c2ncnn2c1=O [Example 11-9, 5-(1-benzyl-1H-pyrazol-4-yl)-6-(1-methylethyl)[1,2,4]triazolo[1,5-a]pyrimidin-7(4H)-one] |
